The values that follow are results of earlier work, collected in patent publication US20240173371A1, “RHODIOLA CRENULATA COMPOSITIONS AND METHODS OF MAKING THE SAME” (NutriScience Innovations LLC, priority 2022, published 2024).

Each structure is given as a SMILES string.

For data set [1] the following is noted: rats, oral, 20 and 40 mg/kg over two weeks.
In data set [2] the test system is CD3+T cells and CD4+T helper cells. Conditions: Wistar male rats, supplementation.
The conditions of data set [3]: rats, oral, 20 and 40 mg/kg over two weeks. This is another data set of the same source.

On to `OC[C@H]1O[C@@H](OCCc2ccc(O)cc2)[C@H](O)[C@@H](O)[C@@H]1O` [salidroside], for which the “outcome of a forced swim test” value in data set [1] is listed as “improved”. Also, in data set [2], the “CD4+T helper cells” value is “increased” and the “total CD3+T cells” value is given as “increased”. In addition, the olfactory-bulbectomy-induced hyperactivity entry in data set [3] is reported as “alleviated”.
